Assay results taken from patent publication US11491162B2, “Combination of quinoline-4-carboxamides and benzonaphthyridine derivatives as antimalarial drug combination” (Merck Patent GmbH, priority 2018, dated 2022).
Counter-ions that a name gives are not always drawn.

Assays:
[1] = target: T1, P-gp (Homo sapiens, UniProt P08183); assay: Inhibition of Pgp-mediated efflux of M1 in Caco-2 monolayer; format: cell-based; conditions: M1 as substrate
T1 construct: In Caco-2 monolayer cells, M1 is effluxed by P-gp transporters with a ratio of 18.2; endogenous in cells; host or cells: Caco-2 cells, differentiated monolayers on polycarbonate filter inserts

[2] = test system: P. falciparum Pf3D7^0087/N9; assay: In vivo SCID mouse model, oral therapeutic efficacy; parameters: species or system Plasmodium falciparum; conditions: for % control: day 7; for Activity: day 7 vs untreated control
Procedure: Compound efficacy was assessed against the Plasmodium falciparum strain Pf3D7^0087/N9 in vivo. Mice are infected intravenously with parasitized red blood cells on day 0. Experimental mice are generally treated at day 3, 4, 5, and 6 post-infection with an oral dose of the compound (single or 4-day oral dosing regimen) and are compared to an infected control group for reduction in parasitemia on day 7 (Maria Belen Jimenez-Díaz, Teresa Mulet, Sara Viera, Vanessa Gomez, Helen Garuti, Javier Ibanez, Angela Alvarez-Doval, Leonard D. Shultz, Antonio Martínez, Domingo Gargallo-Viola, and Inigo Angulo-Barturen, Improved Murine Model of Malaria Using Plasmodium falciparum Competent Strains and Non-Myelodepleted NOD-scid IL2Rgammanull Mice Engrafted with Human Erythrocytes, Antimicrob Agents Chemother. 2009, 53:4533).
PYRO and M1 were solubilized in a vehicle consisting of 70% Tween-80 and 30% ethanol, followed by a 10-fold dilution in H2O.

[3] = PYRO 4 × 1 MG/KG oral, SCID mice, Table 2
[4] = PYRO 4 × 3 MG/KG oral, SCID mice, Table 2
[5] = PYRO 4 × 9 MG/KG oral, SCID mice, Table 2
[6] = Table 4 entry 3: M1 0 mg/kg, PYRO 4 × 3 mg/kg, oral
[7] = Table 4 entry 3: M1 0 mg/kg, PYRO 4 × 3 mg/kg, oral, LLQ = <0.01% parasitemia
[8] = Table 4 entry 5: M1 0 mg/kg, PYRO 4 × 9 mg/kg, oral
[9] = Table 4 entry 5: M1 0 mg/kg, PYRO 4 × 9 mg/kg, oral, LLQ = <0.01% parasitemia
[10] = Table 4 entry 7: M1 0 mg/kg, PYRO 4 × 30 mg/kg, oral
[11] = Table 4 entry 7: M1 0 mg/kg, PYRO 4 × 30 mg/kg, oral, LLQ = <0.01% parasitemia

T1 sequence (P08183 whole entry): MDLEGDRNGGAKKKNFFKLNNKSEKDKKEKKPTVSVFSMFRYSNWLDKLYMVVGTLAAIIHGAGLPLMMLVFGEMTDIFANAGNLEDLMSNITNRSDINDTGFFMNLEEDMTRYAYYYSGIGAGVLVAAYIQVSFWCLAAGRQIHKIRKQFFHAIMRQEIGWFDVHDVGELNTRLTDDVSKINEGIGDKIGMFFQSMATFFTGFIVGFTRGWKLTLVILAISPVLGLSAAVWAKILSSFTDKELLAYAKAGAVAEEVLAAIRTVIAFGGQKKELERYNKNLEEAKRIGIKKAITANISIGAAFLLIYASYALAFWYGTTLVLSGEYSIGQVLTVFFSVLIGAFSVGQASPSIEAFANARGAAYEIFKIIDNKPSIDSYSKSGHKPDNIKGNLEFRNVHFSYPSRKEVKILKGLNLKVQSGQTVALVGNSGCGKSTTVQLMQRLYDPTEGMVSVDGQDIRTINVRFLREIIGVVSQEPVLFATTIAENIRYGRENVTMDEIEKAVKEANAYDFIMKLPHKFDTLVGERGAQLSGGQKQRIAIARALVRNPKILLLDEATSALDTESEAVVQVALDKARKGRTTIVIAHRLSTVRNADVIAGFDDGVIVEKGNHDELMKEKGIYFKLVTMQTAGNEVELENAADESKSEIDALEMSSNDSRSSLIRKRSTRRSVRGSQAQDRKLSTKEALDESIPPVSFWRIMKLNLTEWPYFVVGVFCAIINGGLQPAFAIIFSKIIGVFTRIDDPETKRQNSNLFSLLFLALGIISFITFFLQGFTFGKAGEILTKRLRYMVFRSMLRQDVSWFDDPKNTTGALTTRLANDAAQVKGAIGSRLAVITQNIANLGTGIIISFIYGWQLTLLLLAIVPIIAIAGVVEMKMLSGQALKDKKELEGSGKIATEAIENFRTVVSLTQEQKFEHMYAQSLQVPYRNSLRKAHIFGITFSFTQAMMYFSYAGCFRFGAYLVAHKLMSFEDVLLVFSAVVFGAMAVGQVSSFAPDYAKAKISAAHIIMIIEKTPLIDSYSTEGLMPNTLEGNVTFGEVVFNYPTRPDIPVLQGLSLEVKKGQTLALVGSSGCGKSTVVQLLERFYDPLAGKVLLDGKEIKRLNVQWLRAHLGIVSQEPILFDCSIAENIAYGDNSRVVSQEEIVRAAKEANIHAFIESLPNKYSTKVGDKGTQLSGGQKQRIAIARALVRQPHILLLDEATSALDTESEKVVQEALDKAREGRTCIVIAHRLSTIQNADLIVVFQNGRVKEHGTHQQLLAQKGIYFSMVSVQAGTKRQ

COc1ccc2nc3cc(Cl)ccc3c(Nc3cc(CN4CCCC4)c(O)c(CN4CCCC4)c3)c2n1 [PYRO, pyronaridine tetraphosphate salt]
concentrations at which PYRO inhibited Pgp-mediated efflux of M1 [1]: greater than 10 μM | % PARASITEMIA day 3 post infection [2, 3]: 0.63% | % PARASITEMIA day 4 post infection [2, 3]: 1.21% | % PARASITEMIA day 5 post infection [2, 3]: 3.14% | % PARASITEMIA day 6 post infection [2, 3]: 4.53% | % PARASITEMIA day 7 post infection [2, 3]: 7.55% | % control ([2]; PYRO 4 × 1 MG/KG oral, SCID mice): 82.6% | Activity ([2]; PYRO 4 × 1 MG/KG oral, SCID mice, 1 mg/kg): 17.4% | Activity ([2]; PYRO 4 × 1 MG/KG oral, SCID mice, listed as pyronaridine, 1 mg/kg): 17% | % PARASITEMIA day 3 post infection [2, 4]: 0.71% | % PARASITEMIA day 4 post infection [2, 4]: 1% | % PARASITEMIA day 5 post infection [2, 4]: 0.44% | % PARASITEMIA day 6 post infection [2, 4]: 0.25% | % PARASITEMIA day 7 post infection [2, 4]: 0.04% | % control ([2]; PYRO 4 × 3 MG/KG oral, SCID mice): 0.4% | Activity ([2]; PYRO 4 × 3 MG/KG oral, SCID mice, 3 mg/kg): 99.6% | Activity ([2]; PYRO 4 × 3 MG/KG oral, SCID mice, listed as pyronaridine, 3 mg/kg): 99.6% | % PARASITEMIA day 3 post infection [2, 5]: 0.7% | % PARASITEMIA day 4 post infection [2, 5]: 0.28% | % PARASITEMIA day 5 post infection [2, 5]: 0.15% | % PARASITEMIA day 6 post infection [2, 5]: 0.063% | % PARASITEMIA day 7 post infection ([2]; PYRO 4 × 9 MG/KG oral, SCID mice, Table 2, LLQ = <0.01% parasitemia, 9 mg/kg): <LLQ | % PARASITEMIA day 7 post infection ([2]; PYRO 4 × 9 MG/KG oral, SCID mice, Table 2, LLQ = <0.01% parasitemia, listed as pyronaridine, 9 mg/kg): parasite-free | % control ([2]; PYRO 4 × 9 MG/KG oral, SCID mice, LLQ = <0.01% parasitemia): <LLQ | Activity ([2]; PYRO 4 × 9 MG/KG oral, SCID mice, 9 mg/kg): 100% | Activity ([2]; PYRO 4 × 9 MG/KG oral, SCID mice, listed as pyronaridine, 9 mg/kg): > 99.9% | % PARASITEMIA day 3 post infection [2, 6]: 1.16% | % PARASITEMIA day 4 post infection [2, 6]: 0.67% | % PARASITEMIA day 5 post infection [2, 6]: 0.08% | % PARASITEMIA day 6 post infection [2, 6]: 0.01% | % PARASITEMIA day 7 post infection [2, 7]: <LLQ | % PARASITEMIA day 10 post infection [2, 7]: <LLQ | % PARASITEMIA day 3 post infection [2, 8]: 1.09% | % PARASITEMIA day 4 post infection [2, 8]: 0.34% | % PARASITEMIA day 5 post infection [2, 8]: 0.05% | % PARASITEMIA day 6 post infection [2, 9]: <LLQ | % PARASITEMIA day 7 post infection [2, 9]: <LLQ | % PARASITEMIA day 10 post infection [2, 9]: <LLQ | % PARASITEMIA day 3 post infection [2, 10]: 1.13% | % PARASITEMIA day 4 post infection [2, 10]: 0.14% | % PARASITEMIA day 5 post infection [2, 10]: 0.02% | % PARASITEMIA day 6 post infection [2, 10]: 0.01% | % PARASITEMIA day 7 post infection [2, 11]: <LLQ | % PARASITEMIA day 10 post infection [2, 11]: <LLQ
